According to publication PMC12775434, “Ultra-large virtual screening unveils potent agonists of the neuromodulatory orphan receptor GPR139” (Nature Communications, 2025):

Experiments:
[1] = parameters: method as in PMID 26349500; conditions: first hour after treatment; cited from earlier work
GPR139 = biological target: T1, GPR139 (Homo sapiens, UniProt Q6DWJ6); assay: Signaling pathway panel at GPR139 (Gi2, Gi3, GoA, Gq, G12, Ca2+, arrestin-3), HEK293A; type: cell-based; parameters: expressed in transfected cells; host or cells: HEK293A (transient, Lipofectamine 2000); conditions: for fold more potent than the R-enantiomer: across individual signaling pathways
T1 sequence (Q6DWJ6 1-353): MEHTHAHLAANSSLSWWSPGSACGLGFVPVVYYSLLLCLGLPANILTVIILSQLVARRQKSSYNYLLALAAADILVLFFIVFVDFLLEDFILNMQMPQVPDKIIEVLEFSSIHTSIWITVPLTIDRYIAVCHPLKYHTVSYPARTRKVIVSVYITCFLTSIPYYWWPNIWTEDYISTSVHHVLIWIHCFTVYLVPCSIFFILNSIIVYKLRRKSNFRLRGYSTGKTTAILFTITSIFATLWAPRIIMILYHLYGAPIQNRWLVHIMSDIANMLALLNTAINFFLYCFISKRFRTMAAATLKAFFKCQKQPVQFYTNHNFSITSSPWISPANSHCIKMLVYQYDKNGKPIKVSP
Description: We evaluated the signaling pathways activated by the potent agonist 1.1 and JNJ-63533054 compounds through GPR139. […] As all our screens of analogs were performed with racemic mixtures, we synthesized compound 1.1 as pure S- and R-enantiomer (1.1(S) and 1.1(R), respectively) along with JNJ-63533054 (JNJ(S)) and its R-enantiomer (JNJ(R)). Detailed synthetic procedures are described in the Supplementary Methods. We then characterized these four compounds in assays measuring the activation of Gi2, Gi3, GoA, Gq, and G12 proteins, intracellular calcium mobilization, and arrestin-3 recruitment. G protein activation was measured using a BRET-based Gα-specific G protein dissociation assay[57] and arrestin-3 recruitment was measured with an enhanced bystander BRET assay[58] (Fig. 5a).
HEK293A cells were reverse-transfected with human GPR139 for Ca^2+ mobilization experiments with transiently expressed GPR139. The construct has been generated and described previously by Nøhr et al.. DNA and Lipofectamine 2000 Transfection Reagent (ThermoFisher #11668019) were separately diluted in Opti-MEM I Reduced Serum Medium (ThermoFisher #31985070). 10 ng GPR139 DNA and 250 nL Lipofectamine were used for each well. The dilutions were incubated at room temperature for 5 min. Then, DNA and Lipofectamine dilutions were combined in 1:1 volumetric ratio and incubated at room temperature for 20 min to obtain the transfection solutions. 10 µL transfection solution and 20,000 cells in 100 µL growth medium were distributed in each well of black clear bottom tissue culture treated 96-well plates that were previously coated with poly-D-lysine (Sigma-Aldrich #P0899). Cells were grown for approximately 48 h. A calcium mobilization assay was performed as described.
The G protein dissociation assay developed by the lab of Kirill A. Martemyanov was used to measure the coupling of multiple G proteins by GPR139[57]. The assay was performed as described previously with minor modifications. […] Simultaneous dual emission was measured at 535 nm and 475 nm on LUMIstar Omega Microplate Reader (BMG Labtech) at room temperature. […]

Compound	locomotor activity [1]	fold more potent than the R-enantiomer (GPR139)	EC50 (GPR139; range over pathways, read-out: EC50 for stimulating the individual signaling pathways at GPR139)
CC(NC(=O)CNC(=O)c1cccc(Cl)c1)c1ccccc1 (stereo not shown) [JNJ-63533054, reference compound]	reduction in locomotor activity	40- to 158 fold	–
Cc1cscc1-c1nc(CC(=O)N[C@@H](C)c2ccccc2)no1 [1.1(S)]	–	13- to 63 fold	13 to 200 nM
